The kinase profiling compilation of Christmann-Franck et al. (2016)

Experiments:
Assay in all cases: radiometric filter-binding kinase assay
[1] = molecular target: MYLK (human) (UniProt Q15746)
[2] = molecular target: EPHB2 (human) (UniProt P29323)
[3] = molecular target: TTK (human) (UniProt P33981)
[4] = molecular target: NEK2 (human) (UniProt P51955)
[5] = molecular target: CLK2 (human) (UniProt P49760)
[6] = molecular target: EPHB4 (human) (UniProt P54760); conditions: compound 100.0 µM
[7] = molecular target: IRAK4 (human) (UniProt Q9NWZ3)
[8] = molecular target: MAPK12 (human) (UniProt P53778)
[9] = molecular target: HIPK2 (human) (UniProt Q9H2X6)
[10] = molecular target: PKN2 (human) (UniProt Q16513)
[11] = molecular target: MAPKAPK2 (human) (UniProt P49137)
[12] = molecular target: MARK2 (human) (UniProt Q7KZI7)
[13] = molecular target: CHEK2 (human) (UniProt O96017)
[14] = molecular target: EPHB1 (human) (UniProt P54762)
[15] = molecular target: PRKCA (human) (UniProt P17252)
[16] = molecular target: EPHA2 (human) (UniProt P29317)
[17] = molecular target: PIM1 (human) (UniProt P11309)
[18] = system: ROCK2 (rat); conditions: accession and sequence are those of the human protein
[19] = molecular target: RPS6KA1 KD1 KD2 (human) (UniProt Q15418)
[20] = molecular target: DAPK1 (human) (UniProt P53355)
[21] = system: RPS6KB1 (human), P23443 [T412E]
[22] = molecular target: DYRK2 (human) (UniProt Q92630)
[23] = molecular target: DYRK3 (human) (UniProt O43781)
[24] = molecular target: MARK1 (human) (UniProt Q9P0L2)
[25] = molecular target: GCK (human) (UniProt Q12851); conditions: compound 100.0 µM
[26] = molecular target: MELK (human) (UniProt Q14680)
[27] = molecular target: MAPKAPK5 (human) (UniProt Q8IW41)
[28] = molecular target: MAPK14 (human) (UniProt Q16539)
[29] = molecular target: FLT1 (human) (UniProt P17948)
[30] = system: SGK1 (human), O00141 [S422D]
[31] = molecular target: IKBKE (human) (UniProt Q14164)
[32] = molecular target: MAP3K7 TAB1 (human) (UniProt Q15750+O43318)
[33] = molecular target: PIM3 (human) (UniProt Q86V86)
[34] = molecular target: TAOK1 (human) (UniProt Q7L7X3)
TAOK1 (human), sequence (Q7L7X3 whole entry, looked up): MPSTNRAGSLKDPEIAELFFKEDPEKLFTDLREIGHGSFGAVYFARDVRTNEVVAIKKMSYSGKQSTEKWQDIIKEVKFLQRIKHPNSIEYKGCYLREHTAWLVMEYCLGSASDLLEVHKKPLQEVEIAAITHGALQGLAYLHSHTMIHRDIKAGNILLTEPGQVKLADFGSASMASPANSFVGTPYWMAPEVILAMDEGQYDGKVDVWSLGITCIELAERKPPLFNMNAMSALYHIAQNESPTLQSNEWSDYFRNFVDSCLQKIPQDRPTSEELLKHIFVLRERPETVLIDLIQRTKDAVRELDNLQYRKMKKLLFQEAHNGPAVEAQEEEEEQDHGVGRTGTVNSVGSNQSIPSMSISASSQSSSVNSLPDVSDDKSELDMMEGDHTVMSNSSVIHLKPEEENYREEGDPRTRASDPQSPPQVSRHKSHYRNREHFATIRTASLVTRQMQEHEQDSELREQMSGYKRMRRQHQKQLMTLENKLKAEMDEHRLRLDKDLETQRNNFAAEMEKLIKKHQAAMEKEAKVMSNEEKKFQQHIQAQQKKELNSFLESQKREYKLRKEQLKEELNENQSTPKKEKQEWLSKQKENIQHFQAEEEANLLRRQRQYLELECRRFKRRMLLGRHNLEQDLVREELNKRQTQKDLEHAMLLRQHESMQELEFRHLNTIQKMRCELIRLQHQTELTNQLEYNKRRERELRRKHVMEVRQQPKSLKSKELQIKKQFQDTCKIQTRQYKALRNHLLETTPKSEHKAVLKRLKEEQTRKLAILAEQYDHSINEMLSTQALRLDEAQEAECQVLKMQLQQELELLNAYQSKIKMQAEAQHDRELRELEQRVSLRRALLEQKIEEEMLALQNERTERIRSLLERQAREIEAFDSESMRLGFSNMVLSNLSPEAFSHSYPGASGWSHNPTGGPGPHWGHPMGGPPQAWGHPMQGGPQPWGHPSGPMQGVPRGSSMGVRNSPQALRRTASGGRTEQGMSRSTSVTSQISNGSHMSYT

MAPKAPK2 (human), sequence (P49137 whole entry, looked up): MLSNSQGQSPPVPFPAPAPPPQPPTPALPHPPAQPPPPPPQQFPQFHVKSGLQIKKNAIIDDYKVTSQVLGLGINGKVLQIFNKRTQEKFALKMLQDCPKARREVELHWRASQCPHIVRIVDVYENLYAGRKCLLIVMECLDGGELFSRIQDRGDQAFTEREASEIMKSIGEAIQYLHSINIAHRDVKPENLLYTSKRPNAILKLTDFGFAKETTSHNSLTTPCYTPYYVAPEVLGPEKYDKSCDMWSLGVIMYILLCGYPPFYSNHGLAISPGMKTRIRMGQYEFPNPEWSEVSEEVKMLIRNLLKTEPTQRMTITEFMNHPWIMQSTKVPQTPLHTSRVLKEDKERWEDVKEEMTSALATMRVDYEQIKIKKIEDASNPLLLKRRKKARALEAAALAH
PIM1 (human), sequence (P11309 whole entry, looked up): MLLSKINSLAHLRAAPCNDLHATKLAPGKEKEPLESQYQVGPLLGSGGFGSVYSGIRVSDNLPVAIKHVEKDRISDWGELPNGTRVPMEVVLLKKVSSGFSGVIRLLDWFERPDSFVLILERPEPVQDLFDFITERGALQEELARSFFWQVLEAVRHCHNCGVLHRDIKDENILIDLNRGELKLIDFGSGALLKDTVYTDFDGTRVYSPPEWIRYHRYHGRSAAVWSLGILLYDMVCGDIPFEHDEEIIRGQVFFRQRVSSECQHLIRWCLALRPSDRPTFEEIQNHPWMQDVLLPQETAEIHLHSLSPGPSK
MAPK14 (human), sequence (Q16539 whole entry, looked up): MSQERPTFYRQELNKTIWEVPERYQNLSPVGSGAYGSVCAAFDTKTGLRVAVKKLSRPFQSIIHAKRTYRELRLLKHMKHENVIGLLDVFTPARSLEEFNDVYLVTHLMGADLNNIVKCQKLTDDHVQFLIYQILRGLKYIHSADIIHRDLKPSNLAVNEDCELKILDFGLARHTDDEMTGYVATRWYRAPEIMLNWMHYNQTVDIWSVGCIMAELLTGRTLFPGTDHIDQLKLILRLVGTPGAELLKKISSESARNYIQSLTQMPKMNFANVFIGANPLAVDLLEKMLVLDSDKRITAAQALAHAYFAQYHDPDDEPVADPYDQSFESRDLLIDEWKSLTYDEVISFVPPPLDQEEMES
RPS6KB1 (human), P23443 [T412E], sequence (P23443 whole entry T412E, looked up): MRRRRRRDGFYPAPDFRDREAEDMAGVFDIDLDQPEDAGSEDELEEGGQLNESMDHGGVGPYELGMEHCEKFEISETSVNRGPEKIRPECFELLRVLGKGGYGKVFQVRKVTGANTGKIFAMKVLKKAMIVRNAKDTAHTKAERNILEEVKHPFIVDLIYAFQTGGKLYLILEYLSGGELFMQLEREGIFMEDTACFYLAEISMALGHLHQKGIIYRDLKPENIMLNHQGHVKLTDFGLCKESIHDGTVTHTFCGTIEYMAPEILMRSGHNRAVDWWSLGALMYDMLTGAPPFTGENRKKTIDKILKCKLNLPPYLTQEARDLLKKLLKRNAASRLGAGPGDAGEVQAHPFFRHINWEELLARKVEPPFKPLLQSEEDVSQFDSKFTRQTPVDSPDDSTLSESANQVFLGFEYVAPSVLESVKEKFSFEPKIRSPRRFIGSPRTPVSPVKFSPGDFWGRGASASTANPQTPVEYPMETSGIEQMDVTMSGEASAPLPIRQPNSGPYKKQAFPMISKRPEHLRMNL
DYRK2 (human), sequence (Q92630 whole entry, looked up): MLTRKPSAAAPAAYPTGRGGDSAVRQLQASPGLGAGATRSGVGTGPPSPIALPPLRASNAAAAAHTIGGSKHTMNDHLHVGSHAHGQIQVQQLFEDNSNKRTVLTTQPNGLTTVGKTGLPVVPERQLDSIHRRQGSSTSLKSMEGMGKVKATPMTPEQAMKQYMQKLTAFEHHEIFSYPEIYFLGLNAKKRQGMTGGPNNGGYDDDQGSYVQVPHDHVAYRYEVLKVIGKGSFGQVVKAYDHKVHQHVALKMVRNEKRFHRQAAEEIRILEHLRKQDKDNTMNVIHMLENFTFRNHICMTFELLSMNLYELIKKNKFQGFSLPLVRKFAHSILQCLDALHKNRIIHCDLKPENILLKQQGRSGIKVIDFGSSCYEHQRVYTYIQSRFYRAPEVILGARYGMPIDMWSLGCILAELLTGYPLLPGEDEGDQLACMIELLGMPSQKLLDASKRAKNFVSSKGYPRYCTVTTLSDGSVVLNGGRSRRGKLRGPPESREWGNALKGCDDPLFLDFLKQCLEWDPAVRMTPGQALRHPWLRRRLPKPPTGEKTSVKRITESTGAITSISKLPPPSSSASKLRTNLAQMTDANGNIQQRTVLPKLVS
MAPK12 (human), sequence (P53778 whole entry, looked up): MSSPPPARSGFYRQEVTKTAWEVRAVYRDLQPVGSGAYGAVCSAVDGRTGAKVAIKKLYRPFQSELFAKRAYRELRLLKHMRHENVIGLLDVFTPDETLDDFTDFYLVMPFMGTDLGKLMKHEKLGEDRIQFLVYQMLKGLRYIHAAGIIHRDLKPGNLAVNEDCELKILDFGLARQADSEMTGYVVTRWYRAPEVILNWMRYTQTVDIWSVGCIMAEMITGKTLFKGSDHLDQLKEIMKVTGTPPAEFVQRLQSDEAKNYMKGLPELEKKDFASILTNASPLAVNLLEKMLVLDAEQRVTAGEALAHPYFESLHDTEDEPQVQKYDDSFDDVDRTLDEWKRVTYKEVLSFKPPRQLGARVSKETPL
CHEK2 (human), sequence (O96017 whole entry, looked up): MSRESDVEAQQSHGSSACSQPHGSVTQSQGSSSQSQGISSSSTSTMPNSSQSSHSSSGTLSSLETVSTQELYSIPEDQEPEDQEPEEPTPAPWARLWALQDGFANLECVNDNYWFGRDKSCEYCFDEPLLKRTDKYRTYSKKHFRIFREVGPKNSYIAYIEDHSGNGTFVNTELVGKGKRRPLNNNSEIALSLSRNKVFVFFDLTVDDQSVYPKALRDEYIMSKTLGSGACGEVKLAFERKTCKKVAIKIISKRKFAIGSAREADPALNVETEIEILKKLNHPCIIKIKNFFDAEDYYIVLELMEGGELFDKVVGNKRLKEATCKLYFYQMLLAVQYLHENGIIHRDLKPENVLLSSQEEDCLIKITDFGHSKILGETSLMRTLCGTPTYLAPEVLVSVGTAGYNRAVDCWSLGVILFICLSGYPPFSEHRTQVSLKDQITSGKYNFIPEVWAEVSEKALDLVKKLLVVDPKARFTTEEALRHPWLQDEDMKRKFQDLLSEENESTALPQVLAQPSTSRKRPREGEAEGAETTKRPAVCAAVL
NEK2 (human), sequence (P51955 whole entry, looked up): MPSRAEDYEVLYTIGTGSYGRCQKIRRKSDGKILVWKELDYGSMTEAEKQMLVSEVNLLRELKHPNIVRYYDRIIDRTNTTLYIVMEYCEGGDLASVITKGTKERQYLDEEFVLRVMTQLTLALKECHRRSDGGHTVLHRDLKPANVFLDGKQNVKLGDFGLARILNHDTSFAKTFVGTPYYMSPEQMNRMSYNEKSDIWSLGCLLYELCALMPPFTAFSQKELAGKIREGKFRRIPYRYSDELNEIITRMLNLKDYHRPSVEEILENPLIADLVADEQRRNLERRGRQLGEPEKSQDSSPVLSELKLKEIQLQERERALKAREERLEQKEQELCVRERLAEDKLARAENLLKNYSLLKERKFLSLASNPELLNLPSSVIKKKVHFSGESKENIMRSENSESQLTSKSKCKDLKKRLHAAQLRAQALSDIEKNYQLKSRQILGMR

residual activity ([1]; compound 100.0 µM): 99% | residual activity ([1]; compound 1000.0 µM): 102% | residual activity ([2]; compound 10.0 µM): 118% | residual activity ([2]; compound 100.0 µM): 118% | residual activity ([2]; compound 1000.0 µM): 120% | residual activity ([3]; compound 10.0 µM): 98% | residual activity ([3]; compound 100.0 µM): 93% | residual activity ([3]; compound 1000.0 µM): 93% | residual activity ([4]; compound 10.0 µM): 100% | residual activity ([4]; compound 100.0 µM): 100% | residual activity ([4]; compound 1000.0 µM): 102% | residual activity ([5]; compound 10.0 µM): 92% | residual activity ([5]; compound 100.0 µM): 100% | residual activity ([5]; compound 1000.0 µM): 101% | residual activity [6]: 122% | residual activity ([7]; compound 10.0 µM): 88% | residual activity ([7]; compound 100.0 µM): 104% | residual activity ([7]; compound 1000.0 µM): 117% | residual activity ([8]; compound 10.0 µM): 87% | residual activity ([8]; compound 100.0 µM): 96% | residual activity ([8]; compound 1000.0 µM): 104% | residual activity ([9]; compound 10.0 µM): 98% | residual activity ([9]; compound 100.0 µM): 101% | residual activity ([9]; compound 1000.0 µM): 94% | residual activity ([10]; compound 100.0 µM): 108% | residual activity ([10]; compound 1000.0 µM): 84% | residual activity ([11]; compound 10.0 µM): 92% | residual activity ([11]; compound 100.0 µM): 86% | residual activity ([11]; compound 1000.0 µM): 93% | residual activity ([12]; compound 10.0 µM): 91% | residual activity ([12]; compound 100.0 µM): 108% | residual activity ([13]; compound 10.0 µM): 90% | residual activity ([13]; compound 100.0 µM): 98% | residual activity ([13]; compound 1000.0 µM): 100% | residual activity ([14]; compound 10.0 µM): 101% | residual activity ([14]; compound 100.0 µM): 103% | residual activity ([14]; compound 1000.0 µM): 104% | residual activity ([15]; compound 10.0 µM): 99% | residual activity ([15]; compound 100.0 µM): 101% | residual activity ([15]; compound 1000.0 µM): 105% | residual activity ([16]; compound 10.0 µM): 106% | residual activity ([16]; compound 100.0 µM): 124% | residual activity ([16]; compound 1000.0 µM): 129% | residual activity ([17]; compound 10.0 µM): 99% | residual activity ([17]; compound 100.0 µM): 107% | residual activity ([17]; compound 1000.0 µM): 101% | residual activity ([18]; compound 10.0 µM): 81% | residual activity ([18]; compound 100.0 µM): 89% | residual activity ([18]; compound 1000.0 µM): 98% | residual activity ([19]; compound 10.0 µM): 91% | residual activity ([19]; compound 100.0 µM): 92% | residual activity ([19]; compound 1000.0 µM): 90% | residual activity ([20]; compound 10.0 µM): 99% | residual activity ([20]; compound 100.0 µM): 102% | residual activity ([20]; compound 1000.0 µM): 104% | residual activity ([21]; compound 10.0 µM): 99% | residual activity ([21]; compound 100.0 µM): 101% | residual activity ([21]; compound 1000.0 µM): 115% | residual activity ([22]; compound 10.0 µM): 91% | residual activity ([22]; compound 100.0 µM): 94% | residual activity ([22]; compound 1000.0 µM): 103% | residual activity ([23]; compound 10.0 µM): 105% | residual activity ([23]; compound 1000.0 µM): 106% | residual activity ([24]; compound 10.0 µM): 98% | residual activity ([24]; compound 100.0 µM): 115% | residual activity ([24]; compound 1000.0 µM): 108% | residual activity [25]: 107% | residual activity ([26]; compound 10.0 µM): 93% | residual activity ([26]; compound 100.0 µM): 103% | residual activity ([27]; compound 10.0 µM): 96% | residual activity ([27]; compound 100.0 µM): 92% | residual activity ([27]; compound 1000.0 µM): 94% | residual activity ([28]; compound 10.0 µM): 90% | residual activity ([28]; compound 100.0 µM): 99% | residual activity ([28]; compound 1000.0 µM): 106% | residual activity ([29]; compound 10.0 µM): 108% | residual activity ([29]; compound 100.0 µM): 110% | residual activity ([29]; compound 1000.0 µM): 98% | residual activity ([30]; compound 10.0 µM): 93% | residual activity ([30]; compound 100.0 µM): 96% | residual activity ([30]; compound 1000.0 µM): 100% | residual activity ([31]; compound 10.0 µM): 80% | residual activity ([31]; compound 100.0 µM): 96% | residual activity ([31]; compound 1000.0 µM): 93% | residual activity ([32]; compound 10.0 µM): 105% | residual activity ([32]; compound 100.0 µM): 115% | residual activity ([32]; compound 1000.0 µM): 103% | residual activity ([33]; compound 10.0 µM): 96% | residual activity ([33]; compound 100.0 µM): 106% | residual activity ([33]; compound 1000.0 µM): 92% | residual activity ([34]; compound 10.0 µM): 91% | residual activity ([34]; compound 100.0 µM): 109% | residual activity ([34]; compound 1000.0 µM): 123%
Structure (SMILES): COC(=O)/C=C/C(=O)OC
